# According to patent US5427766A, “Radiolabeled steroids for use in radiochemical-guided surgery” (priority 1993, dated 1995):
# Assays:
# Parameters in all cases: species or system athymic female NCR-Nu Mice
# [1] = system: MCF-7(ER+) breast tumor xenografts; assay: In vivo localization (biodistribution) in athymic female nude mice bearing subcutaneous MCF-7 tumor xenografts
# Experimental: (§1) In vivo localization of 11β-ethyl-17α-(Z)-[^125 I](iodovinyl)estra-3,17β-diol (5) and a control compound 16α-[^125 I]iodovinyl-3,17β-estradiol (commercially available from DuPont New England Nuclear, MA) was determined in athymic female NCR-Nu Mice (purchased from Simonsen Laboratories, Gilroy, Calif.) bearing subcutaneous MCF-7(ER+) breast tumor xenografts. Prior to injection of the compounds, the mice were each implanted with fragments of MCF-7 breast tumor (approximately 2 cubic millimeters) in the subcutis of the left flank. At approximately the same time, a 1.7 mg estradiol pellet (Innovative Research of America, Toledo, Ohio) was implanted in the scapular region. The tumors were allowed to grow until they reached between 50 and 200 mg by visual inspection (approximately four to five weeks) prior to injection of the test compounds. One day prior to injection of the test compounds, the estradiol pellet was removed.
# (§2) The mice were each injected via tail vein with between 3 (1.1×10^5 Bq) and 6 μCi ([…]) ^125 I in approximately 50 μL of phosphate buffered saline. The mice were sacrificed at various time intervals. After exsanguination, the selected organ/tissue were excised, weighed and radioactivity measured in a gamma counter. The counts per minute (cpm) of 125I in each tissue was determined and expressed as cpm per gram of tissue per injected dose multiplied by 100 (percent injected dose/gram).
# [2] = system: MCF-7 tumors located intraperitoneally; assay: In vivo localization (biodistribution) in athymic female nude mice bearing intraperitoneal MCF-7 tumors; settings: for Percent Injected Dose/Gram, muscle: mouse, in vivo, ip
# Experimental: as §1, §2
# The procedure of Example 3 was followed except each mouse was inoculated intraperitoneally with MCF-7 breast carcinoma cell line (7.5×10^6 cell/50 μL) rather than implanted subcutaneously with MCF-7 breast tumor. One day prior to this procedure, a 1.7 mg estradiol pellet was implanted subcutaneously in the scapular region. The tumor cells were allowed to form solid tumor nodules for 4 to 6 weeks prior to injection of the test compounds.
# [3] = system: MDA-MB-231 (ER-) breast tumor xenografts; assay: In vivo biolocalization with gamma detecting probe, tumor/background ratio, MDA-MB-231 (ER-) tumor; settings: mouse, in vivo
# Experimental: (§3) In vivo biolocalization of 11β-ethyl-17α-(Z)-[^125 I](iodovinyl)estra-3,17β-diol (5) and a control compound 16α-[^125 I](iodovinyl)-3,17β-estradiol was determined in athymic female NCR-Nu Mice bearing subcutaneous MCF-7(ER+) breast tumor xenografts and MDA-MB-231 (ER-) breast tumor xenografts. The mice were at least 5 weeks old prior to injection into the right-hand flank with […] of MCF-7 breast carcinoma cells ([…]). One day prior to this procedure, the mice were implanted subcutaneously with a 1.7 mg estradiol pellet in the scapular region. Four to six weeks post-injection of the MCF-7 cells the estradiol pellet was removed and the mice inoculated in the left hind flank with 75 μL NDA-MB-231 breast tumor cells ([…]). Seven to ten days prior to injection of the test compounds, an estradiol pellet was again implanted in the scapular region. One to two days prior to injection of the test compounds, the estradiol pellet was removed, and 5 mice arbitrarily assigned to each test group.
# (§4) The mice were each injected via tail vein with between 3 ([…]) and […] ([…]) 125 iodine in approximately […] of phosphate-buffered saline. At various time intervals after injection of the test compounds, each group of mice was anesthetized with methoxyflurane in order to measure the radioactivity over the ER+ and ER- tumors and the front leg for use as a background and the thoraxic area which served as a blood pool control using a gamma detecting probe (RIGS ^TM Model 1001 control unit, Neoprobe Corporation, Columbus, Ohio). Three 20 to 60 second counts were recorded at each area measured at each time point.
# (§5) ^c Tu/Bkg = Mean(1-5) of (mean tumor countsn - mean foreleg
# (§6) background countsn)/mean foreleg background
# [4] = system: MCF-7(ER+) breast tumor xenografts; assay: In vivo biolocalization with gamma detecting probe, tumor/background ratio, MCF-7 (ER+) tumor; settings: mouse, in vivo
# Experimental: as §3, §4, §5, §6
smiles,measurement,setting,value
"CC[C@H]1C[C@@]2(C)[C@@H](CC[C@@]2(O)/C=C\[125I])[C@@H]2CCc3cc(O)ccc3[C@@H]12 [Compound 5, 11β-ethyl-17α-(Z)-[^125 I](iodovinyl)estra-3,17β-diol]",radioactivity in the uteri and tumors,"[1]; 48 hours post-injection, uteri and tumors, subcutaneous MCF-7",still contain a significant amount of radioactivity
same,"Percent Injected Dose/Gram, fat","[1]; Fat, 48 hours, tail vein, subcutaneous MCF-7, mean, n = 5",0.00 Percent Injected Dose/Gram
same,"Percent Injected Dose/Gram, muscle","[1]; 24 hours, tail vein, subcutaneous MCF-7, mean, n = 5",0.00 Percent Injected Dose/Gram
same,"Percent Injected Dose/Gram, muscle","[1]; 48 hours, tail vein, subcutaneous MCF-7, mean, n = 5",0.00 Percent Injected Dose/Gram
same,binding affinity in vivo with retention of the targeted-site,"[1]; subcutaneous MCF-7, conclusion in words",high binding affinity in vivo with retention of the targeted-site
same,radioactivity in the uteri and tumors,"[2]; 48 hours post-injection, uteri and tumors, intraperitoneal MCF-7",still contain a significant amount of radioactivity
same,"Percent Injected Dose/Gram, fat","[2]; Fat, 48 hours, tail vein, intraperitoneal MCF-7, mean, n = 5",0.00 Percent Injected Dose/Gram
same,binding affinity in vivo with retention of the targeted-site,"[2]; intraperitoneal MCF-7, conclusion in words",high binding affinity in vivo with retention of the targeted-site
same,"Percent Injected Dose/Gram, muscle",[2]; 1440 min,0.00 Percent Injected Dose/Gram
same,"Percent Injected Dose/Gram, muscle",[2]; 2880 min,0.00 Percent Injected Dose/Gram
same,Tumor/Background Ratio (Tu/Bkg),[3],2.44 ± 1.83
same,Tumor/Background Ratio (Tu/Bkg),[3]; 120 min,4.34 ± 1.37
same,Tumor/Background Ratio (Tu/Bkg),[3]; 360 min,4.44 ± 2.62
same,Tumor/Background Ratio (Tu/Bkg),[3]; 1440 min,0.87 ± 0.54
same,Tumor/Background Ratio (Tu/Bkg),[3]; 2880 min,0.03 ± 0.34
same,Tumor/Background Ratio (Tu/Bkg),[4],4.70 ± 1.85
same,tumor to background ratios (in words),[4],good tumor to background ratios
same,tumor to background ratios / localization at the tumor site (in words),[4],maintained a high tumor to background ratios
same,Tumor/Background Ratio (Tu/Bkg),[4]; 120 min,4.74 ± 2.04
same,Tumor/Background Ratio (Tu/Bkg),[4]; 360 min,7.32 ± 0.60
same,Tumor/Background Ratio (Tu/Bkg),[4]; 1440 min,3.53 ± 1.30
same,Tumor/Background Ratio (Tu/Bkg),[4]; 2880 min,1.79 ± 1.23
